# Tested on: influenza A (H1N1)
# Experiment: Influenza virus mouse model, feed supplemented with N5G
# Assay type: in vivo
# Source text: The overall purpose of the study was to determine whether the N5G nutritional supplement has the ability to have significant impact on clinical disease outcomes caused by influenza virus in a mouse animal model.
# The experimental design included adherence to a strict feeding schedule, which included 30 days of acclimation of mice to a defined base feed (AIN-93M) provided by Purina TestDiet, Inc. Control animals remained continuously fed with the defined base feed, while the experimental mouse group was fed with the base feed supplemented with 0.35% of N5G.
# Experimental and control mouse groups were infected intranasally with 107.5 TCID50 influenza A (H1N1) with each mouse receiving 5iL of viral inoculum per nostril. The experimental parameters followed during the study were: 1) mouse weight changes; 2) food intake changes; 3) clinical signs of disease; 4) lung tissue pathology; 5) lung consolidation scores; 6) changes in viral loads.
# Overall, the experimental design was executed without any major obstacles. As expected, there was minor occasional wasting of feed in some cages (mice chewed on feed which was dropped on the bottom of the cage). In every instance noted on daily observations, the residual feed was weighed, but it was excluded in any statistical calculations as well as in the calculation of baseline feed intake.
# As expected, all influenza infected mice developed clinical signs of disease starting 2 days post infection. Clinical signs included: 1) ruffled fur, 2) inactivity, 3) hunching, 4) death, 5) weight loss, and 6) loss of appetite.
# Clinical signs 1-4 were scored by two independent observers using a scale of 0-5. The cumulative scores were plotted and statistically analyzed. Statistical analyses were performed using SAS v.9.1.3. An analysis of variance (ANOVA) of a repeated measures design was calculated in a split-plot arrangement of treatments, with the treatment group on the main plot, and the subplot including day and treatment by day interactions. Interaction of pairwise comparisons of least square means was performed with a pairwise t-test with pre-planned comparisons. This statistical methodology was used for all comparisons in the study.
# D. The most important aspect of influenza infections is the resultant lung immunopathology. Typically, viral replication as well as infiltration of lymphocytes causes substantial damage to lung tissues. In fact, it is believed that infiltration of lymphocytes and their negative effects on lungs tissues is the most important parameter of influenza-related morbidity and mortality in humans. Consequently, particular care was taken to examine the tissues of mice for signs of histopathological changes. The following evaluation criteria were utilized to score these changes: 1) Lung consolidation scores (LCS); 2) Histopathological scores (HS). LCS were rated as follows: grade 1: no plum coloration; grade 2: minimum plum coloration; grade 3: medium plum coloration; grade 4: maximum plum coloration. HS were rated as follows: Grade 0: no overt histological change; grade 1+: only bronchial/bronchiolar and/or peri-bronchial/bronchiolar/vascular changes; grade 2+: 1-10% pulmonary parenchyma affected; grade 3+: 11-30% pulmonary parenchyma affected; grade 4:+: 31-50% pulmonary parenchyma affected; grade 5+: greater than 50% pulmonary parenchyma affected.
smiles,measurement,setting,value
"O=C(CO)N[C@H]1[C@H]([C@H](O)[C@H](O)CO)O[C@](O)(C(=O)O)C[C@@H]1O [NGNA, n-glycolylneuraminic acid]",Viral titers from lung homogenates,"mice, 2 days post infection, treated and untreated",less than 100 plaque forming units (PFU) per 250iL of homogenate
same,"Clinical signs 1-4 scores (ruffled fur, inactivity, hunching, death), treated versus untreated","mice, base feed with 0.35% N5G, days 6-8 post infection, FIG. 3",Statistically significant differences
same,"Histopathological scores, treated versus untreated","mice, day 6 post infection, grades 0 to 5+, FIG. 7",statistically significant difference
same,"Viral titers from lung homogenates, treated versus untreated","mice, days 2, 4, 6, 8 and 21 post infection, one mouse per group per time point",No significant differences
same,"% change in mouse weights, untreated versus treated","mice, days 3-9 post infection, FIG. 5",highly significant reduction in body weights was observed in the control mouse group
same,% daily feed intake,"mice, days 5-6 post infection, FIG. 4, group with the loss not stated",statistically significant loss of appetite
same,"Lung consolidation scores, treated versus untreated","mice, grades 1-4, FIG. 6","“trend” toward a healthier status of treated versus untreated mice. However, there results were not statistically significant"
same,Effect on ameliorating clinical symptoms and adverse pathological implication of influenza infection,"mouse experimental model, overall conclusion",significant effect
